We go through two compounds from US11571403B2, “Methods for the treatment of non-alcoholic steatohepatitis” (Eiger Biopharmaceuticals, Inc., priority 2016, dated 2023).

In assay [1] the test system is STAM mouse model for NASH. The assay is described as follows: Fibrosis area by Sirius red staining, STAM mouse NASH model (Example 1). In kind it is in vivo. Conditions: 7 to 9 weeks of age. The source says:
(§1) The STAM™ mouse is a model for NASH created by a combination of chemical and dietary interventions in C57BL/6 mice that manifest NASH at about 8 weeks, which progresses to fibrosis at about 12 weeks and then progresses to HCC at about 16 weeks. See, Saito et al., Sci. Rep. 2015, 5:12466.
(§2) In the study, the control groups were as follows: (i) Untreated Disease Control—a group of STAM mice injected with streptozotocin (STZ, Sigma-Aldrich, USA) at 2 days old, and fed a high fat diet (HFD, 57 kcal % fat, Cat #HFD32, CLEA Japan, Japan) starting at 4 weeks old; and (ii) Positive Control—a group of STAM mice treated with telmisartan (10 mg/kg QD from 7 to 9 weeks). In addition to these control groups, test groups of STAM mice treated with a low dose of ubenimex (5 mg/kg ubenimex BID from 7 to 9 weeks) or a high dose of ubenimex (25 mg/kg BID from 7 to 9 weeks), were included in the study. The low dose is equivalent to a human dose of 30 mg BID. The high dose is equivalent to a human dose of 150 mg BID. The viability, clinical signs and behavior were monitored daily, including body weight, signs of toxicity, moribundity and mortality. The mice were maintained in a SPF facility under controlled conditions of temperature (23±2° C.), humidity (45±10%), lighting (12-hour artificial light and dark cycles; light from 8:00 to 20:00) and air exchange. A high pressure was maintained in the experimental room to prevent contamination of the facility. The mice were housed in TPX cages (CLEA Japan) with a maximum of 4 mice per case.
(§3) All groups of mice were sacrificed at 9 weeks. Once sacrificed, the body weight of each mouse was recorded. The liver of each mouse was removed and weighed. The liver-to-body weight ratio was determined for each mouse. Blood serum levels of CK-18, ALT, and liver triglycerides were determined for each mouse. The livers were then sectioned and stained with hematoxylin and eosin (“HE”) stain, as well as Sirius red staining, to determine liver steatosis (ballooning) and fibrosis, respectively.

Assay [2] deals with STAM model of NASH fibrosis. The assay is described as follows: Biochemistry: plasma ALT and liver triglyceride, STAM model of NASH with fibrosis (Example 3). In kind it is in vivo, mouse. The method, then: Ubenimex or telmisartan was administered orally in a volume at 10 mL/kg. Ubenimex was administered at a dose of 5 mg/kg once daily or twice daily. Telmisartan was administered at a dose of 5 mg/kg once daily.
For plasma biochemistry, blood was collected in polypropylene tubes with anticoagulant (Novo-Heparin, Mochida Pharmaceutical Co. Ltd., Japan) and centrifuged at 1,000×g for 15 minutes at 4° C. The supernatant was collected and stored at −80° C. until use. Plasma ALT level was measured by FUJI DRI-CHEM 7000 (Fujifilm, Japan).
Liver total lipid-extracts were obtained by Folch's method (Folch et al., J. Biol Chem, 1957, 226:497). Liver samples were homogenized in chloroform-methanol (2:1 v/v) and incubated overnight at room temperature. After washing with chloroform-methanol-water (8:4:3 v/v/v), the extracts were evaporated to dryness and dissolved in isopropanol. Liver triglyceride content was measured by Triglyceride E-test (Wako Pure Chemical Industries, Ltd., Japan).
Study groups: The following study groups were used. Group 1 (Vehicle): 8 NASH mice were orally administered vehicle (RO water) in a volume of 10 mL/kg twice daily from 6 to 11 weeks of age. Group 2 (Ubenimex QD for 5 weeks): 8 NASH mice were orally administered vehicle supplemented with ubenimex at a dose of 5 mg/kg once daily from 6 to 11 weeks of age. Group 3 (Ubenimex BID for 5 weeks): 8 NASH mice were orally administered vehicle supplemented with ubenimex at a dose of 5 mg/kg twice daily from 6 to 11 weeks of age. Group 4 (Ubenimex BID for 2 weeks): 8 NASH mice were orally administered vehicle supplemented with ubenimex at a dose of 5 mg/kg twice daily from 9 to 11 weeks of age. Group 5 (Telmisartan for 5 weeks): 8 NASH mice were orally administered pure water supplemented with telmisartan at a dose of 5 mg/kg once daily from 6 to 11 weeks of age.

The test system of assay [3] is STAM mouse model for NASH. The assay is described as follows: Plasma CK-18, STAM mouse NASH model (Example 1). In kind it is in vivo.
Excerpt: as §1, §2, §3

Assay [4] relates to STAM mouse model for NASH. The assay is described as follows: NAFLD Activity Score by HE staining, STAM mouse NASH model (Example 1). In kind it is in vivo. Conditions: for Steatosis score 0, number of mice: score 0 = <5%; for Steatosis score 0, number of mice / Hepatocyte ballooning score 0, number of mice / Steatosis score 1, number of mice / Lobular inflammation score 1, number of mice / Lobular inflammation score 2, number of mice / Lobular inflammation score 3, number of mice / NAS (mean ± SD) / Hepatocyte ballooning score 1, number of mice: 7 to 9 weeks of age; for Hepatocyte ballooning score 0, number of mice: score 0 = None; for Steatosis score 1, number of mice: score 1 = 5-33%; for Lobular inflammation score 1, number of mice: score 1 = <2 foci/200x; for Lobular inflammation score 2, number of mice: score 2 = 2-4 foci/200x; for Lobular inflammation score 3, number of mice: score 3 = >4 foci/200x; for Hepatocyte ballooning score 1, number of mice: score 1 = Few balloon cells.
Excerpt: as §1, §2, §3

Where [5] appears, read: telmisartan 5 mg/kg QD oral, 6 to 11 weeks of age.
The mark [6] stands for this setting: ubenimex 5 mg/kg BID oral, 6 to 11 weeks of age.
The mark [7] stands for this setting: ubenimex 5 mg/kg BID oral, 9 to 11 weeks of age.
The mark [8] stands for this setting: ubenimex 5 mg/kg QD oral, 6 to 11 weeks of age.

`CCCc1nc2c(C)cc(-c3nc4ccccc4n3C)cc2n1Cc1ccc(-c2ccccc2C(=O)O)cc1` [Telmisartan, telmisartan]: in assay [1] (telmisartan 10 mg/kg QD), the “Sirius red-positive area (fibrosis area, mean ± SD)” value is given as 0.71 ± 0.15%. Moreover, in assay [2] (setting [5]), the “Liver triglyceride (mean ± SD)” value was determined as 24.6 ± 8.4 mg/g liver and the “Plasma ALT (mean ± SD)” value was 36 ± 11 U/L. In assay [3] (telmisartan group (10 mg/kg QD, 7 to 9 weeks)), the “Plasma CK-18” value came to 284.5±38.4 mIU/mL. Also, in assay [4] (telmisartan 10 mg/kg QD), the “Steatosis score 0, number of mice” value came out at 3; the “Hepatocyte ballooning score 0, number of mice” value worked out at 8; the “Steatosis score 1, number of mice” value was 5; the “Lobular inflammation score 1, number of mice” value was 2. Further, in assay [4] (telmisartan 10 mg/kg QD), the “Lobular inflammation score 2, number of mice” value was 4; the “Lobular inflammation score 3, number of mice” value is reported as 2; the “NAS (mean ± SD)” value was 2.6 + 0.9.

On to `CC(C)C[C@H](NC(=O)[C@@H](O)[C@H](N)Cc1ccccc1)C(=O)O` [Ubenimex, (2S)-2-[[(2S,3R)-3-amino-2-hydroxy-4-phenylbutanoyl]amino]-4-methylpentanoic acid], for which the “Sirius red-positive area (fibrosis area, mean ± SD)” value in assay [1] (ubenimex 5 mg/kg BID) stood at 0.80 ± 0.16%. Besides, in assay [1] (ubenimex 25 mg/kg BID), the “Sirius red-positive area (fibrosis area, mean ± SD)” value was 1.05 ± 0.14%. Besides, in assay [2] (setting [6]), the “Liver triglyceride (mean ± SD)” value stood at 59.6 ± 21.4 mg/g liver and the “Plasma ALT (mean ± SD)” value is reported as 52 ± 21 U/L. Besides, in assay [2] (setting [7]), the “Liver triglyceride (mean ± SD)” value is reported as 62.0 ± 33.5 mg/g liver and the “Plasma ALT (mean ± SD)” value stood at 47 ± 24 U/L. Also, in assay [2] (setting [8]), the “Liver triglyceride (mean ± SD)” value is 58.6 ± 24.4 mg/g liver and the “Plasma ALT (mean ± SD)” value worked out at 85 ± 64 U/L. Moreover, in assay [3] (high dose ubenimex group (25 mg/kg BID, 7 to 9 weeks)), the “Plasma CK-18” value turned out to be 230.8±28.6 mIU/mL. Further, in assay [3] (low dose ubenimex group (5 mg/kg BID, 7 to 9 weeks)), the “Plasma CK-18” value amounted to 238.5±7.7 mIU/mL. Further, the “Hepatocyte ballooning compared with the control group” value in assay [4] (high and low dose ubenimex groups (25 and 5 mg/kg BID, 7 to 9 weeks)) is recorded as “significantly decreased”. Moreover, in assay [4] (ubenimex 5 mg/kg BID), the “Steatosis score 0, number of mice” value worked out at 1; the “Hepatocyte ballooning score 0, number of mice” value is recorded as 4; the “Steatosis score 1, number of mice” value is listed as 5; the “Lobular inflammation score 1, number of mice” value amounted to 1. In assay [4] (ubenimex 5 mg/kg BID), the “Hepatocyte ballooning score 1, number of mice” value is 2; the “Lobular inflammation score 2, number of mice” value came out at 3; the “Lobular inflammation score 3, number of mice” value is on record as 2; the “NAS (mean ± SD)” value worked out at 3.3 ± 0.5. Moreover, in assay [4] (ubenimex 25 mg/kg BID), the “Hepatocyte ballooning score 0, number of mice” value is listed as 5; the “Steatosis score 1, number of mice” value came out at 7; the “Hepatocyte ballooning score 1, number of mice” value was determined as 2; the “Lobular inflammation score 2, number of mice” value amounted to 5. Moreover, in assay [4] (ubenimex 25 mg/kg BID), the “Lobular inflammation score 3, number of mice” value was 2 and the “NAS (mean ± SD)” value came to 3.6 ± 0.5.
